From US20050020519A1, “Modulation of insulin-regulated aminopeptidase (irap)/angiotensin iv (at4) receptor activity” (priority 2001, published 2005)
Where no end group is shown, it is not given here.

Tests used:
AT4 receptor [1] = conditions: Moeller et al, 1996; Zhang et al, 1999; cited from earlier work
rat hippocampal slices = test: Potassium-evoked ^3H-choline release from rat hippocampal slices; type: cell-based; conditions: at 10^−7M
Experimental: To determine the effect of IRAP inhibitors an acetylcholine release for rat hippocampal slices in vitro, rats were anaesthetized with sodium pentobarbitone, decapitated and the brain rapidly extracted and put on ice. The two sides of the hippocampus were then dissected, and stored in Krebs buffer on ice. The tissues were sectioned into 400 μm slices using a McI1wain slicer, and incubated with 10 μM of ^3H-choline in Krebs buffer for 20 min at 37° C. Following the incubation, the sections were transferred to Brandel superfusion chambers filled with carbogenated Krebs buffer, pH7.0 containing […] hemicholinium HC-3 to prevent choline reuptake. The slices were washed for 60 min at 37° C. with Krebs buffer at a flow rate of 500 μl/min. Superfusate samples were collected at 5 min intervals for the duration of the experiment. After a stable baseline was established, the hippocampal slices were depolarised by the addition of 30 mM KCl to the Krebs buffer and infused for 4 min (stimulation period S1). The tissue was then allowed to recover for 25 min before the next stimulation period (S2). To test the effect of […] […] Fractional ^3H-choline release, expressed as a ratio of S2/S1, was then calculated for each of the different peptides at the different doses.

IRAP = target: T1, IRAP (Homo sapiens, UniProt Q9UIQ6); test: IRAP enzymatic activity, hydrolysis of L-leucine-β-naphthylamide (fluorescence); type: biochemical
T1 construct: expressed in transfected cells; host or cells: HEK 293T cells (solubilised membrane protein)
From the text: For example, Hek293 cells stably transfected with a eukaryotic expression vector expressing the AT4 receptor gene may be utilized. An example of this is the vector pcDNA-3 containing the cDNA encoding the full length AT4 receptor. Two assay systems are used, one for each spliced variant of the human AT4 receptor gene. The assay system involves the measurement of the rate of hydrolysis of L-leucyl β-naphthylamide by the AT4 receptor. The rate of hydrolysis by the transfected cells is followed by recording the increase in fluorescence (excitation at 340 nm, emission at 410 nm) using a purpose-designed fluorimeter. Test compounds are added to the assay system, and their effects on the hydrolysis of L-leucyl β-naphthylamide are a direct indicator of their modulation of AT4 receptor activity.
Crude membranes were prepared from HEK 293 cells stably transfected with pcDNA-3 containing the cDNA encoding the full length AT4 receptor/IRAP, using the same method as that described for bovine adrenal membranes. The membranes were solubilised in 50 mM Tris-HCl containing 1% Triton-X100 at 4° C. for 16 h. The IRAP enzymatic activity was determined by the hydrolysis of a synthetic substrate, L-leucine-β-naphthylamide, and monitored by the release of a fluorogenic product on a spectrophotometer set at excitation 340 nm and emission 410 nm. One hundred μM of the substrate was added to 10 μg of solubilised membranes, and the increase in fluorescence monitored for 10 min.
Samples were assayed 2-3 times in triplicate, except controls, which were performed 5 times in triplicate.

AT4 receptor [2] = target: T2, AT4 receptor (Bos taurus, UniProt F1N1Q8); test: AT4 radioreceptor assay, ^125I-Ang IV binding to bovine adrenal membranes
T2 construct: from tissue; host or cells: bovine adrenal gland membranes
T2 sequence (F1N1Q8 1-1022): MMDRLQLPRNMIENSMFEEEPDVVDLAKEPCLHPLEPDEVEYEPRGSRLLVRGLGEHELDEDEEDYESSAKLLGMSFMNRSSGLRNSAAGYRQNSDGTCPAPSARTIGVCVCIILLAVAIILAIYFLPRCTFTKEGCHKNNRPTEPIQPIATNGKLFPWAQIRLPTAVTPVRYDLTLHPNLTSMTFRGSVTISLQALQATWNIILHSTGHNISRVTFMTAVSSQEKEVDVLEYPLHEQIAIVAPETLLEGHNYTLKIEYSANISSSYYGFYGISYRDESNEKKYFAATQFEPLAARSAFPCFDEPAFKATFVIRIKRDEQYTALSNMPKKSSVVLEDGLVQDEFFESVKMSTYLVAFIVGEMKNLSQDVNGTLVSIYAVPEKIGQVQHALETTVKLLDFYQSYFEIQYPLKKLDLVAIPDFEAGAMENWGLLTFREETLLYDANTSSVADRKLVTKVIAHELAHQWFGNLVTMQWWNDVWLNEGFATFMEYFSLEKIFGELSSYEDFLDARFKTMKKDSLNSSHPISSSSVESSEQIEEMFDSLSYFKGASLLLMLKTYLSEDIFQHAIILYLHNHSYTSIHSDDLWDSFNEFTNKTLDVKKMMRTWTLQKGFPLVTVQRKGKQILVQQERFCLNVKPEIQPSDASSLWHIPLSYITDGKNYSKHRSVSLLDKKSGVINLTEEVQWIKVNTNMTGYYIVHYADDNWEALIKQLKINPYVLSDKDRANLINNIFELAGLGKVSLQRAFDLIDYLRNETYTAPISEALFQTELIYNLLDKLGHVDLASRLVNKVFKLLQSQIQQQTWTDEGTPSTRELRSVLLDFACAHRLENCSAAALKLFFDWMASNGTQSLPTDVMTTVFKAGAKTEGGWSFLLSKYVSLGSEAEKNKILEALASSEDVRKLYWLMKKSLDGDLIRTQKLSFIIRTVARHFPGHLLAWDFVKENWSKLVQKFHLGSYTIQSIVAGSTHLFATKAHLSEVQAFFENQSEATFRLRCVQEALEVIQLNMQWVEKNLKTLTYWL
Experimental: The AT4 radioreceptor assay was used to screen the sheep brain extracts for AT4 receptor modulatory activity. The membranes were prepared using bovine adrenal glands obtained from the abattoir. The adrenals were diced, homogenized in ice-cold hypotonic buffer (50 mM Tris, 5 mM EDTA, pH 7.4) and centrifuged for 10 min at 500 g. […] The resulting pellets were re-homogenized in hypotonic buffer. […] The samples were incubated for 2 h at 37° C., and the bound ligand was separated on Whatman GF/B glass fibre filters.

T1 sequence (Q9UIQ6 whole entry): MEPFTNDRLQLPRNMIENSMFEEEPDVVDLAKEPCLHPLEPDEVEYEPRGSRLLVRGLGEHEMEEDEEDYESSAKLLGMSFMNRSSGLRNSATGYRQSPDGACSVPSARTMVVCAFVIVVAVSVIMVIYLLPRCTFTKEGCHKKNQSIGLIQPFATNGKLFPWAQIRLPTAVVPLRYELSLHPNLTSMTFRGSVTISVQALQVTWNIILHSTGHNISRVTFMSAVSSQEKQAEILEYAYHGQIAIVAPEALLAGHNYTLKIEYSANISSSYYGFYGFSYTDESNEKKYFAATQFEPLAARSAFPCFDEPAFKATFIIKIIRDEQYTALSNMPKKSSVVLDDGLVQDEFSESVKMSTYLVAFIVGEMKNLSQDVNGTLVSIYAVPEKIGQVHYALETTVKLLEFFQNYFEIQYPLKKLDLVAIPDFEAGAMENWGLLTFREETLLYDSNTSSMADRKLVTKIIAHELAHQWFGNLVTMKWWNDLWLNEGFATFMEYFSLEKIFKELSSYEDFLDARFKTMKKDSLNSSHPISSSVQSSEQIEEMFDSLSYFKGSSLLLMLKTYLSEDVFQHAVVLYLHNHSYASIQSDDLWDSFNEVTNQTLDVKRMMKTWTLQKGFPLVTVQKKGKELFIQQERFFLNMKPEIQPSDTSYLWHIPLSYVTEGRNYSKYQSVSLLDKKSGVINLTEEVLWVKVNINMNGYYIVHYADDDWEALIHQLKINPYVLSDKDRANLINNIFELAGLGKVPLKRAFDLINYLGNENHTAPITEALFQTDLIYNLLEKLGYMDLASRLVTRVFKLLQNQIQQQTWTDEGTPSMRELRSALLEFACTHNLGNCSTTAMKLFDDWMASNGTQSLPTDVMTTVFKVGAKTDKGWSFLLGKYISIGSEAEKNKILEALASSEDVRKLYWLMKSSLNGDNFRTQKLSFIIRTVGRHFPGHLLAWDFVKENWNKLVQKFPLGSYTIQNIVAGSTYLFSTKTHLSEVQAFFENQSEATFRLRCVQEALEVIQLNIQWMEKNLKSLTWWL

LVVYPWTQRF
affinity for AT4 receptor (AT4 receptor [1]): nanomolar affinity | maximum effect on potassium-evoked ^3H-choline release (rat hippocampal slices): 180 % of control | Ki (IRAP): 845 nM | hydrolysis of L-leucine-β-naphthylamide by membranes containing IRAP (IRAP; 10 mM peptide): totally abolished | type of inhibition of IRAP (IRAP; Lineweaver-Burk analysis): competitive inhibitors | Ki (AT4 receptor [2]): 1 to 5 nM
